For experiment [1], the target named is human vasopressin V1b receptor (Homo sapiens (Human), UniProt P47901). As to the kind of experiment: Vasopressin V1b receptor binding assay. The conditions noted are these: membranes from CHO-K1 cells, displacement of 3H-AVP. The procedure: The test substances were dissolved in a concentration of 5 mM in 100% DMSO and further diluted to 5×10^−4 M to 5×10^−9 M. These serial DMSO predilutions were diluted 1:10 with assay buffer. The substance concentration was further diluted 1:5 in the assay mixture resulting in 2% DMSO in the mixture. All dilutions were performed in a Biomek NX automation workstation (Beckman)
Sequence of human vasopressin V1b receptor (P47901 whole entry): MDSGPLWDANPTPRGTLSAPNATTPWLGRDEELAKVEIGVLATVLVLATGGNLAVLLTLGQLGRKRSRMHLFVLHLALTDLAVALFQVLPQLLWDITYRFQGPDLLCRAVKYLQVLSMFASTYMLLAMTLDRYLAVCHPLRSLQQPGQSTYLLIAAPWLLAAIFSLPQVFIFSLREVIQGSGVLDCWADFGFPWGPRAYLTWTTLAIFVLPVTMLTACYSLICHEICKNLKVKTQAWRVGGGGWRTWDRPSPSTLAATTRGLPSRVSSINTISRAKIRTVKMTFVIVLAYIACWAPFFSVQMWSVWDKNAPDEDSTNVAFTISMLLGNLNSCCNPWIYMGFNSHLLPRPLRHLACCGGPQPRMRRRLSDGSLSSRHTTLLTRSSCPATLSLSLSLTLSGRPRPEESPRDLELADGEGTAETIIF
The membrane pellet was again homogenized and centrifuged as described and subsequently taken up in 50 mM Tris-HCl, pH 7.4, homogenized and stored in aliquots frozen in liquid nitrogen at −190° C.
(§1) The incubation buffer was: 50 mM Tris, 10 mM MgCl2, 0.1% BSA, pH 7.4.
All determinations were carried out as duplicate determinations. […] The liquid scintillation measurement took place in a Microbeta TriLux 12 (Wallac). Analysis:
(§2) The binding parameters were calculated by nonlinear regression in SAS.

The target of experiment [2] is human vasopressin V1a receptor (Homo sapiens (Human), UniProt P37288). Briefly: Vasopressin V1a receptor binding assay. The note with it: selectivity quotient, human V1a vs human V1b receptor. The procedure:
The test substances were dissolved in a concentration of 5 mM M in DMSO. Further dilution of these DMSO solutions took place as described for V1b.
The membrane pellet was again homogenized in a High-Pressure-Homogenizer, Polytec 50K at 1500 PSI (Heinemann, Germany) and subsequently taken up in 50 mM Tris-HCl, pH 7.4, homogenized and stored in aliquots frozen in liquid nitrogen at −190° C.
as §1
Duplicate determinations were carried out.
After incubation (60 minutes at room temperature), the samples were processed as described for V1b.
as §2

Sequence of human vasopressin V1a receptor (P37288 whole entry): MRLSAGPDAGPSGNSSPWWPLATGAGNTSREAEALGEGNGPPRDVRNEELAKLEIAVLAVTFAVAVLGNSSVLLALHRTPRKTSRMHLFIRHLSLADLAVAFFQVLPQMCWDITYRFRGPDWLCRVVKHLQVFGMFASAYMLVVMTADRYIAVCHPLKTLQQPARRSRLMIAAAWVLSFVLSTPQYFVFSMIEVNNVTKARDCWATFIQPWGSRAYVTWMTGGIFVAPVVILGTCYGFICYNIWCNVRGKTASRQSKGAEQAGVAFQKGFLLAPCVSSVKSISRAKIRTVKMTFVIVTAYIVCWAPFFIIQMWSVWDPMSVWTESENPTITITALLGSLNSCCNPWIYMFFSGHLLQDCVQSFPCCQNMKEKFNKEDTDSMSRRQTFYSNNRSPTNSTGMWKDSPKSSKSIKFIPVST

With `CCOc1ccc(OC)cc1C1(N2CC3(CN(C4CCN(C)CC4)C3)C2)C(=O)N(S(=O)(=O)c2ccc(OC)cn2)c2ccc(C#N)cc21` (single isomer, unassigned; (-)) [Example 1B, (−)-3-(2-ethoxy-5-methoxy-phenyl)-1-[(5-methoxy-2-pyridyl)sulfonyl]-3-[2-(1-methyl-4-piperidyl)-2,6-diazaspiro[3.3]heptan-6-yl]-2-oxo-indoline-5-carbonitrile], the inhibition constant Ki in experiment [1] lay in the range of 10 to 100 nM. In addition, in experiment [2], the “Ki(h-V1a)/ Ki(h-V1b)” value is on record as “+++ (>75)”.

As to `CCOc1ccc(OC)cc1[C@]1(N2CC3(CN(C4CCN(C)CC4)C3)C2)C(=O)N(S(=O)(=O)c2ccc(OC)nc2)c2ccc(C#N)cc21` [Example 31, (3S)-3-(2-ethoxy-5-methoxy-phenyl)-1-[(6-methoxy-3-pyridyl)sulfonyl]-3-[2-(1-methyl-4-piperidyl)-2,6-diazaspiro[3.3]heptan-6-yl]-2-oxo-indoline-5-carbonitrile], the Ki in experiment [1] was in the range of 1 to 10 nM. Further, the “Ki(h-V1a)/ Ki(h-V1b)” value in experiment [2] was “+ (10-<25)”.

Turning to `CCOc1ccc(OC)cc1[C@]1(N2CC3(CN(C4CCN(C)CC4)C3)C2)C(=O)N(S(=O)(=O)c2ccccn2)c2ccc(C#N)cc21` [Example 33, (3S)-3-(2-ethoxy-5-methoxy-phenyl)-3-[2-(1-methyl-4-piperidyl)-2,6-diazaspiro[3.3]heptan-6-yl]-2-oxo-1-(2-pyridylsulfonyl)indoline-5-carbonitrile], the inhibition constant (Ki) in experiment [1] lay within 1 to 10 nM. Moreover, the “Ki(h-V1a)/ Ki(h-V1b)” value in experiment [2] is on record as “+++ (>75)”.

`CCOc1ccc(OC)cc1[C@]1(N2CC3(CN(C4CCN(C)CC4)C3)C2)C(=O)N(S(=O)(=O)c2ccc(Cl)cn2)c2ccc(C#N)cc21` [Example 34, (3S)-1-[(5-chloro-2-pyridyl)sulfonyl]-3-(2-ethoxy-5-methoxy-phenyl)-3-[2-(1-methyl-4-piperidyl)-2,6-diazaspiro[3.3]heptan-6-yl]-2-oxo-indoline-5-carbonitrile]: in experiment [1], the Ki was under 1 nM. Further, in experiment [2], the “Ki(h-V1a)/ Ki(h-V1b)” value is “+++ (>75)”.

These data come from patent publication US9688678B2, “Oxindole compounds carrying a nitrogen-bound spiro substituent and use thereof for treating vasopressin-related diseases” (AbbVie Deutschland GmbH & Co. KG, priority 2014, dated 2017).
